According to the NIST ThermoML archive (doi:10.1021/je030177j):
± gives the expanded uncertainty stated by the source.

Conditions: Liquid, Capillary tube (Ostwald / Ubbelohde) method

For O [water], the viscosity (297.88 K, 10000 kPa) was 0.893 ± 0.014 mPa·s, the viscosity (297.88 K, 20000 kPa) was 0.8933 ± 0.014 mPa·s and the viscosity (297.88 K, 30000 kPa) was 0.8935 ± 0.014 mPa·s. It also gave a viscosity (319.09 K, 10000 kPa) of 0.5912 ± 0.0096 mPa·s, a viscosity (319.09 K, 20000 kPa) of 0.589 ± 0.0096 mPa·s and a viscosity (319.09 K, 30000 kPa) of 0.5978 ± 0.0097 mPa·s. It also gave a viscosity (340.98 K, 10000 kPa) of 0.4195 ± 0.0069 mPa·s, a viscosity (340.98 K, 20000 kPa) of 0.4232 ± 0.0069 mPa·s and a viscosity (340.98 K, 30000 kPa) of 0.4275 ± 0.007 mPa·s. The viscosity (370.39 K, 10000 kPa) was 0.2947 ± 0.0049 mPa·s, the viscosity (370.39 K, 20000 kPa) was 0.2976 ± 0.005 mPa·s and the viscosity (370.39 K, 30000 kPa) was 0.3012 ± 0.005 mPa·s. The viscosity (408.77 K, 10000 kPa) was 0.206 ± 0.0035 mPa·s, the viscosity (408.77 K, 20000 kPa) was 0.2107 ± 0.0036 mPa·s and the viscosity (408.77 K, 30000 kPa) was 0.2132 ± 0.0037 mPa·s. The viscosity (447.38 K, 10000 kPa) was 0.1576 ± 0.0028 mPa·s, the viscosity (447.38 K, 20000 kPa) was 0.161 ± 0.0028 mPa·s and the viscosity (447.38 K, 30000 kPa) was 0.1637 ± 0.0029 mPa·s. The viscosity (483.66 K, 10000 kPa) was 0.129 ± 0.0024 mPa·s, the viscosity (483.66 K, 20000 kPa) was 0.1314 ± 0.0024 mPa·s and the viscosity (483.66 K, 30000 kPa) was 0.134 ± 0.0024 mPa·s. The viscosity (538.57 K, 10000 kPa) was 0.1005 ± 0.0019 mPa·s, the viscosity (538.57 K, 20000 kPa) was 0.1027 ± 0.002 mPa·s and the viscosity (538.57 K, 30000 kPa) was 0.1058 ± 0.002 mPa·s. The viscosity (574.32 K, 10000 kPa) was 0.0866 ± 0.0017 mPa·s, the viscosity (574.32 K, 20000 kPa) was 0.0903 ± 0.0018 mPa·s and the viscosity (574.32 K, 30000 kPa) was 0.0932 ± 0.0018 mPa·s.
